Source: ChEMBL document CHEMBL5236596, “Discovery and Optimization of N-Acyl-6-sulfonamide-tetrahydroquinoline Derivatives as Novel Non-Steroidal Selective Glucocorticoid Receptor Modulators” (J Med Chem, 2022)

Columns and labels:
Glucocorticoid receptor [1] = target: T1, Glucocorticoid receptor (Homo sapiens, UniProt P04150); assay: Binding affinity to glucocorticoid receptor (unknown origin) by Lanthascreen TR-FRET competition binding assay
T1 sequence (P04150 whole entry): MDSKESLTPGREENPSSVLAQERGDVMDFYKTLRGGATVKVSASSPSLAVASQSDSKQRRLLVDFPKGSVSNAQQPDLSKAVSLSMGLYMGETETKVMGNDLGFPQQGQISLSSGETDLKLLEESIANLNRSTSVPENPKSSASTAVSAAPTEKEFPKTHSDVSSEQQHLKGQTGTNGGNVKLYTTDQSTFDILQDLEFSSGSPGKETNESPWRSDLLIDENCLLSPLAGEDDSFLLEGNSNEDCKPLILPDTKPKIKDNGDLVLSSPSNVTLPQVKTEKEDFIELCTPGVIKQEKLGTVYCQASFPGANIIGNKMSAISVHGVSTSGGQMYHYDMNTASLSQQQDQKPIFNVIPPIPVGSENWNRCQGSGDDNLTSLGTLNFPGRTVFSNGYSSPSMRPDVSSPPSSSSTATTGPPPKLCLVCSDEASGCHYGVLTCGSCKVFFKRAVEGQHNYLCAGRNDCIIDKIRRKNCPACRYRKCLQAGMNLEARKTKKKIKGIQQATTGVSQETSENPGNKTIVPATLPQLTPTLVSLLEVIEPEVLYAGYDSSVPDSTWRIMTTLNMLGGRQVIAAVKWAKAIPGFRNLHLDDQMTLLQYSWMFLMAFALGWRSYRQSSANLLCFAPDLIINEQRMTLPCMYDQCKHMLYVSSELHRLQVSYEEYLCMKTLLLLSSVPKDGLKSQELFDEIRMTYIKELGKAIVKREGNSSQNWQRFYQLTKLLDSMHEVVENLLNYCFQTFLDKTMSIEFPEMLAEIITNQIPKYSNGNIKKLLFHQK

Glucocorticoid receptor [2] = target: T1, Glucocorticoid receptor; assay: Modulation of glucocorticoid receptor (unknown origin) transfected in human HeLa cells assessed as transrepression by measuring inhibition of TNF-alpha induced NF-kappaB signalling incubated for 18 hrs by dual-luciferase reporter based assay; assay type: cell-based
Glucocorticoid receptor [3] = target: T1, Glucocorticoid receptor; assay: Modulation of glucocorticoid receptor (unknown origin) transfected in human HeLa cells assessed as transrepression by measuring inhibition of PMA-induced AP-1 signalling incubated for 18 hrs by dual-luciferase reporter based assay; assay type: cell-based

| SMILES | IC50 (Glucocorticoid receptor [1]) [nM] | IC50 (Glucocorticoid receptor [2]) [nM] | IC50 (Glucocorticoid receptor [3]) [nM] |
| --- | --- | --- | --- |
| O=C(c1ccco1)N1CCCc2cc(N(S(=O)(=O)c3ccc(Cl)cc3)S(=O)(=O)c3ccc(Cl)cc3)ccc21 | > 50000 | 450 | 3960 |
| COc1cc(C)c(Cl)cc1S(=O)(=O)Nc1ccc2c(c1)CCCN2C(=O)c1ccc(Cl)cc1 | 2070 | 100 | 1810 |
| O=C(c1ccco1)N1CCCc2cc(N(S(=O)(=O)c3ccc(Br)cc3)S(=O)(=O)c3ccc(Br)cc3)ccc21 |  | > 10000 | > 25000 |
| C#CC1=C(SCC(=O)c2ccccc2)NC(C)=C(C(C)=O)C1c1cccs1 (stereo unspecified) | 1860 |  |  |
| COc1cccc(Cl)c1S(=O)(=O)Nc1ccc2c(c1)CCCN2C(=O)c1ccco1 |  | > 10000 | > 10000 |
| COc1cc(C)c(Cl)cc1S(=O)(=O)Nc1ccc2c(c1)CCCN2C(=O)c1ccc(C(F)(F)F)cc1 | 2220 | 300 | 3330 |
| O=C(c1ccco1)N1CCCc2cc(N(S(=O)(=O)c3ccc([N+](=O)[O-])cc3)S(=O)(=O)c3ccc([N+](=O)[O-])cc3)ccc21 | > 50000 | 2660 | 4800 |
| COc1cc(C)c(C)cc1S(=O)(=O)Nc1ccc2c(c1)CCCN2C(=O)C1CC1 | 7500 | 100 | 360 |
| CCS(=O)(=O)N(c1ccc2c(c1)CCCN2C(=O)c1ccco1)S(=O)(=O)CC |  | > 50000 | > 50000 |
| COc1cc(C)c(Cl)cc1S(=O)(=O)Nc1ccc2c(c1)CCCN2C(=O)c1cccs1 | 1140 | 170 | 1360 |
| O=C(c1ccco1)N1CCCc2cc(N(S(=O)(=O)c3ccc4c(c3)CCCC4)S(=O)(=O)c3ccc4c(c3)CCCC4)ccc21 | > 50000 | 700 | 7990 |
| O=C(c1ccco1)N1CCCc2cc(NS(=O)(=O)c3ccc(Cl)c(C(F)(F)F)c3)ccc21 | 19700 | 2450 | 4120 |
| COc1ccccc1S(=O)(=O)Nc1ccc2c(c1)CCCN2C(=O)c1ccco1 | > 10000 | 900 | 4910 |
| N#Cc1ccc(S(=O)(=O)N(c2ccc3c(c2)CCCN3C(=O)c2ccco2)S(=O)(=O)c2ccc(C#N)cc2)cc1 | > 30000 | > 10000 | 3150 |
| COC(=O)c1ccc(S(=O)(=O)N(c2ccc3c(c2)CCCN3C(=O)c2ccco2)S(=O)(=O)c2ccc(C(=O)OC)cc2)cc1 |  | > 50000 | > 10000 |
| COc1cc(C)c(Cl)cc1S(=O)(=O)Nc1ccc2c(c1)CCCN2C(=O)c1ccncc1 | > 50000 | 20 | 550 |
| O=C(c1ccco1)N1CCCc2cc(NS(=O)(=O)c3ccc([N+](=O)[O-])cc3)ccc21 | > 50000 | 3620 | 4270 |
| CC(C)(C)c1ccc(S(=O)(=O)N(c2ccc3c(c2)CCCN3C(=O)c2ccco2)S(=O)(=O)c2ccc(C(C)(C)C)cc2)cc1 |  | > 10000 | > 10000 |
| O=C(c1ccco1)N1CCCc2cc(NS(=O)(=O)c3ccc4c(c3)CCO4)ccc21 | 1970 | 1320 | 5040 |
| COc1cc(C)c(Cl)cc1S(=O)(=O)Nc1ccc2c(c1)CCCN2C(=O)c1ccc(C)cc1F |  | > 10000 | > 10000 |
| COc1ccc(C)c(C)c1S(=O)(=O)Nc1ccc2c(c1)CCCN2C(=O)c1ccco1 | 1350 | 100 | 990 |
| O=C(c1ccco1)N1CCCc2cc(NS(=O)(=O)c3ccc(C(F)(F)F)cc3)ccc21 | > 50000 | 2620 | 3220 |
| N#Cc1ccc(S(=O)(=O)Nc2ccc3c(c2)CCCN3C(=O)c2ccco2)cc1 |  | > 10000 | > 10000 |
| COc1cc(C)c(C)cc1S(=O)(=O)Nc1ccc2c(c1)CCCN2C(=O)C1CCCCC1 | > 50000 | 4610 | > 10000 |
| O=C(c1ccco1)N1CCCc2cc(NS(=O)(=O)c3ccc(F)cc3)ccc21 |  | > 10000 | > 10000 |
| COc1cc(C)c(Cl)cc1S(=O)(=O)Nc1ccc2c(c1)CCCN2C(=O)C1CCCCC1 | > 50000 | 580 | > 10000 |
| COc1cc(C)c(Cl)cc1S(=O)(=O)Nc1ccc2c(c1)N(C(=O)c1ccco1)CCC2 | > 50000 | 60 | 680 |
| O=C(c1ccco1)N1CCCc2cc(NS(=O)(=O)c3ccc4ccccc4c3)ccc21 | 1120 | 190 | 2080 |

| SMILES | IC50 (Glucocorticoid receptor [1]) [nM] | IC50 (Glucocorticoid receptor [2]) [nM] | IC50 (Glucocorticoid receptor [3]) [nM] |
| --- | --- | --- | --- |
| NC(=O)c1ccc(S(=O)(=O)Nc2ccc3c(c2)CCCN3C(=O)c2ccco2)cc1 |  | > 10000 | > 10000 |
| O=C(c1ccco1)N1CCCc2cc(N(S(=O)(=O)c3cccs3)S(=O)(=O)c3cccs3)ccc21 | > 50000 | 1050 | 2860 |
| CN(C)c1cccc2c(S(=O)(=O)Nc3ccc4c(c3)CCCN4C(=O)c3ccco3)cccc12 | > 50000 | 210 | 1670 |
| O=C(c1ccco1)N1CCCc2cc(NS(=O)(=O)c3ccc4c(c3)CCCC4)ccc21 | 1220 | 320 | 4070 |
| COc1cc(C)c(Cl)cc1S(=O)(=O)Nc1ccc2c(c1)CCCN2C(=O)c1ccc2ccccc2c1 | 3280 | 330 | 1950 |
| COc1ccc(S(=O)(=O)N(c2ccc3c(c2)CCCN3C(=O)c2ccco2)S(=O)(=O)c2ccc(OC)cc2)cc1 | > 50000 | 280 | 1050 |
| Cc1ccc(S(=O)(=O)N(c2ccc3c(c2)CCCN3C(=O)c2ccco2)S(=O)(=O)c2ccc(C)cc2)cc1 | > 50000 | 90 | 330 |
| O=C(c1ccco1)N1CCCc2cc(NS(=O)(=O)c3ccc(Cl)c([N+](=O)[O-])c3)ccc21 | 590 | 260 | 1000 |
| CCCCc1ccc(S(=O)(=O)Nc2ccc3c(c2)CCCN3C(=O)c2ccco2)cc1 | 7160 | 1150 | 3690 |
| COc1ccc(S(=O)(=O)Nc2ccc3c(c2)CCCN3C(=O)c2ccco2)cc1 | > 50000 | 1830 | 5620 |
| O=C(c1ccco1)N1CCCc2cc(N(S(=O)(=O)c3cccnc3)S(=O)(=O)c3cccnc3)ccc21 |  | > 10000 | > 50000 |
| O=C(c1ccco1)N1CCCc2cc(N(S(=O)(=O)c3ccc(C(F)(F)F)cc3)S(=O)(=O)c3ccc(C(F)(F)F)cc3)ccc21 |  | > 50000 | > 50000 |
| COc1cc(C)c(Cl)cc1S(=O)(=O)Nc1ccc2c(c1)CCCN2C(=O)c1ccco1 | 5020 | 50 | > 10000 |
| COc1cc(C)c(Cl)cc1S(=O)(=O)Nc1ccc2c(c1)CCCN2C(=O)c1ncccn1 | > 50000 | 130 | 1170 |
| O=C(c1ccco1)N1CCCc2cc(N(S(=O)(=O)c3ccccc3)S(=O)(=O)c3ccccc3)ccc21 | > 50000 | 390 | 620 |
| O=C(c1ccco1)N1CCCc2cc(N(S(=O)(=O)Cc3ccccc3)S(=O)(=O)Cc3ccccc3)ccc21 |  | > 50000 | > 50000 |
| O=C(c1ccco1)N1CCCc2cc(NS(=O)(=O)c3ccc(-c4ccccc4)cc3)ccc21 | 90 | 810 | 7220 |
| COc1ccc(C(=O)N2CCCc3cc(NS(=O)(=O)c4cc(Cl)c(C)cc4OC)ccc32)cc1 | > 50000 | 67 | 1420 |
| O=C(c1ccco1)N1CCCc2cc(N(S(=O)(=O)c3ccc(-c4ccccc4)cc3)S(=O)(=O)c3ccc(-c4ccccc4)cc3)ccc21 | 2290 | 70 | 4150 |
| CC(C)(C)c1ccc(S(=O)(=O)Nc2ccc3c(c2)CCCN3C(=O)c2ccco2)cc1 | 470 | 180 | 1150 |
| O=C(c1ccco1)N1CCCc2cc(NS(=O)(=O)c3ccccc3)ccc21 | 1920 | 3990 | 3830 |
| CCCCS(=O)(=O)N(c1ccc2c(c1)CCCN2C(=O)c1ccco1)S(=O)(=O)CCCC | > 50000 | 1790 | 2840 |
| O=C(c1ccco1)N1CCCc2cc(N(S(=O)(=O)c3ccc(F)cc3)S(=O)(=O)c3ccc(F)cc3)ccc21 | > 50000 | 840 | 2250 |
| O=C(c1ccco1)N1CCCc2cc(N(S(=O)(=O)c3cc4ccccc4s3)S(=O)(=O)c3cc4ccccc4s3)ccc21 | > 50000 | 430 | 3190 |
| O=C(c1ccco1)N1CCCc2cc(NS(=O)(=O)c3cccs3)ccc21 | > 50000 | > 10000 | 9260 |
| COc1cc(C)c(Cl)cc1S(=O)(=O)Nc1ccc2c(c1)CCCN2C(=O)c1ccc(C)cc1 | > 50000 | 80 | 1110 |
| COc1cc(C)c(C)cc1S(=O)(=O)Nc1ccc2c(c1)CCCN2C(=O)c1ccccc1 | > 50000 | 890 | 1140 |
